Results: article PMC9000418 (Molecules, 2022)
Where two headings read alike, the source gives them in different places.

Assays:
BChE = format: biochemical
Experimental: The inhibitory activities of all of the obtained chalcone derivatives (3a–3j) against cholinesterase enzymes were evaluated using the previously described in vitro modified Ellman’s spectrophotometric method.
The assay was completed in two steps. […].
[…]. The reagents and materials used in the enzyme inhibition assay were supplied commercially by Sigma-Aldrich (St. Louis, MO, USA) and Fluka (Steinheim, Germany). The cholinesterase enzyme inhibition procedure was applied as reported in our previous research papers.

AChE = AChE (Electrophorus electricus, UniProt O42275); assay: AChE inhibition, in vitro modified Ellman's spectrophotometric method; format: biochemical; conditions: read-out: AChE % Inhibition
Text: The assay was completed in two steps.
The reagents and materials used in the enzyme inhibition assay were supplied commercially by Sigma-Aldrich (St. Louis, MO, USA) and Fluka (Steinheim, Germany). The cholinesterase enzyme inhibition procedure was applied as reported in our previous research papers.

[1] = In vitro BBB permeability assay (PAMPA); format: in vitro ADME; conditions: for Type of BBB Permeation: PAMPA, PBS pH 7.4, donor 100 μM; for BBB permeability (in words): in vitro PAMPA
Experimental: As it is known, the ability of drugs to be used in diseases related to the central nervous system to pass the blood–brain barrier is an indispensable feature. These properties of the synthesized compounds were estimated using physicochemical parameters. […].
To observe the BBB permeability of the active compounds 3i and 3j, the parallel artificial membrane permeability assay (PAMPA) was performed as previously described. Briefly, the solutions of each compound were prepared in dimethyl sulfoxide (DMSO) at 10 mM and then diluted with PBS (Phosphate-Buffered Saline; pH = 7.4) to obtain the donor drug solution with the nominal final concentration of 100 μM (297 μL of buffer + 3 μL of DMSO drug solution). An amount of 100 μM is suitable for direct HPLC-DAD measurements. This solution was shaken for 1 h at room temperature in a 96-well polypropylene plate (Agilent, Waldbronn, Germany) and then filtered to avoid solid particles. The data were measured in 3 replicates on each plate. After the preparation of the solutions, the assay procedure was performed according to the kit method.

[2] = DPPH free radical scavenging antioxidant activity
Text: This activity method is a method based on measuring the scavenging effects of the DPPH• (1,1-Diphenyl-2-picrylhydrazil) radical, which is a stable organic nitrogen radical of antioxidants. One of the few stable organic nitrogen radicals, the DPPH• radical is dark violet in color. This method, which is based on the scavenging of the DPPH radical via antioxidants, is a redox reaction. When this radical interacts with hydrogen donors, it is reduced to hydrazine. The dark purple color of the methanolic DPPH• solution turns yellow with the addition of antioxidants, and the change in absorbance is measured spectrophotometrically. More illumination is determined by a greater reduction in the absorbance of the reaction mixture and indicates higher radical scavenging capacity.
For the DPPH free radical scavenging activity test, test compounds were prepared at 10 µM, 1 µM, 0.1 µM, and 0.01 µM concentrations, as shown in Figure 3. By using the absorbance changes determined because of the spectroscopic measurement, the % DPPH free radical scavenging activities of the synthesized compounds and reference materials (ascorbic acid and citric acid) were determined. The % antioxidant activities of all tested compounds were calculated based on the control.
This is a method based on measuring the scavenging effects of the DPPH (1,1-Diphenyl-2- picrylhydrazyl) radical, a stable organic nitrogen-centered free radical. To prepare the DPHH solution, 9.86 mg of DPPH was measured and topped up to 25 mL with methanol. A total of 100 µL of DPPH solution and 100 µL of the test solutions were placed in the test wells. Only 200 µL of methanol was used for blank reading; 100 µL of methanol and 100 µL of DPPH solution were used for control. After incubation, spectrophotometric reading was performed at 517 nm.

[3] = Cytotoxicity MTT assay in NIH/3T3 cell line; format: cell-based; conditions: mouse, NIH/3T3 mouse embryonic fibroblast cells, read-out: IC50 against NIH/3T3 cells (cytotoxicity)
Experimental: The NIH/3T3 mouse embryonic fibroblast cell line (ATCC® CRL-1658™, London, UK) was used for cytotoxicity assays. The incubation period of NIH/3T3 cells was based on the supplier’s recommendation. NIH/3T3 cells were seeded at 1 × 10^4 cells into each well of the 96-well plates. The MTT assay was carried out in accordance with the standards previously described.

AChE, sequence (O42275 24-633): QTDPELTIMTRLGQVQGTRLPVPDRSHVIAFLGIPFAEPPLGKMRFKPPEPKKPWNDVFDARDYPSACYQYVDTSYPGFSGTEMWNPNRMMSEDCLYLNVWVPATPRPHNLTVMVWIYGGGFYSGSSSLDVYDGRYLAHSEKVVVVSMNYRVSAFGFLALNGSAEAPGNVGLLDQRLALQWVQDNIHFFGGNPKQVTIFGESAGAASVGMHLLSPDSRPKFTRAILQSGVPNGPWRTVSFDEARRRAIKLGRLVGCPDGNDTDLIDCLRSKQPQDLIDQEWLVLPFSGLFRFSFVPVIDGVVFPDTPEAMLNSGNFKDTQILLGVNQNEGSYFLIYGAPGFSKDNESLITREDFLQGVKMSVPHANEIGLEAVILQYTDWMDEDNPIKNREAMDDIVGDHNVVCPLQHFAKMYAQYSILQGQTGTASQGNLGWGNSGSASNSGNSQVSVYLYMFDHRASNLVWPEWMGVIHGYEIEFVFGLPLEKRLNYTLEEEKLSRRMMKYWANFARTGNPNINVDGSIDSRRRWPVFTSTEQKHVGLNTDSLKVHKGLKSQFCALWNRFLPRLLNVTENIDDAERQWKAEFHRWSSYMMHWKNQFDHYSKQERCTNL

## O=C1CSc2ccc(C(=O)CSc3nnc(NC4CCCCC4)s3)cc2N1 [Compound 3f, 6-(2-((5-(Cyclohexylamino)-1,3,4-thiadiazol-2-yl)sulfanyl)acetyl)-2H-benzo[b][1,4]thiazin-3(4H)-one]
BChE; 10^−3 M
  BChE % Inhibition: 30.5 ± 0.8%
BChE; 10^−4 M
  BChE % Inhibition: 26.2 ± 0.8%
AChE
  inhibition at 100 µM: 45 ± 1%
  inhibition at 1000 µM: 65.4 ± 1.3%

## CC(C)CNc1nnc(SCC(=O)c2ccc3c(c2)NC(=O)CS3)s1 [Compound 3e, 6-(2-((5-(Isobutylamino)-1,3,4-thiadiazol-2-yl)sulfanyl)acetyl)-2H-benzo[b][1,4]thiazin-3(4H)-one]
BChE; 10^−3 M
  BChE % Inhibition: 37.3 ± 0.8%
BChE; 10^−4 M
  BChE % Inhibition: 24.6 ± 0.9%
AChE
  inhibition at 100 µM: 46.2 ± 0.8%
  inhibition at 1000 µM: 69.9 ± 1.2%

## COc1ccc(Nc2nnc(SCC(=O)c3ccc4c(c3)NC(=O)CS4)s2)cc1 [Compound 3i, 6-(2-((5-((4-Methoxyphenyl)amino)-1,3,4-thiadiazol-2-yl)sulfanyl)acetyl)-2H-benzo[b][1,4]thiazin-3(4H)-one]
[1]
  Type of BBB Permeation: CNS+ High BBB permeation (High BBB permeation Pe (10^−6 cm s^−1) > 4.0)
  BBB permeability (in words): high BBB permeability
[2]; 0.01 µM
  % DPPH free radical scavenging (inhibition): 65.00% ± 1.10
[2]; 0.1 µM
  % DPPH free radical scavenging (inhibition): 75.00% ± 1.80
[2]; 1 µM
  % DPPH free radical scavenging (inhibition): 82.00% ± 1.20
[2]; 10 µM
  % DPPH free radical scavenging (inhibition): 90.00% ± 2.40
BChE; 10^−3 M
  BChE % Inhibition: 40.2 ± 0.9%
BChE; 10^−4 M
  BChE % Inhibition: 28.0 ± 0.8%
AChE
  inhibition at 100 µM: 90.5 ± 1.1%
  inhibition at 1000 µM: 93.2 ± 1.4%
[3]
  IC50: 98.3 ± 3.98 µM

## CCCCNc1nnc(SCC(=O)c2ccc3c(c2)NC(=O)CS3)s1 [Compound 3d, 6-(2-((5-(Butylamino)-1,3,4-thiadiazol-2-yl)sulfanyl)acetyl)-2H-benzo[b][1,4]thiazin-3(4H)-one]
BChE; 10^−3 M
  BChE % Inhibition: 36.1 ± 0.9%
BChE; 10^−4 M
  BChE % Inhibition: 21.4 ± 0.9%
AChE
  inhibition at 100 µM: 47.3 ± 0.9%
  inhibition at 1000 µM: 72.7 ± 1.5%

## O=C1CSc2ccc(C(=O)CSc3nnc(Nc4ccccc4)s3)cc2N1 [Compound 3g, 6-(2-((5-(Phenylamino)-1,3,4-thiadiazol-2-yl)sulfanyl)acetyl)-2H-benzo[b][1,4]thiazin-3(4H)-one]
BChE; 10^−3 M
  BChE % Inhibition: 39.6 ± 0.9%
BChE; 10^−4 M
  BChE % Inhibition: 24.8 ± 0.8%
AChE
  inhibition at 100 µM: 44.5 ± 0.8%
  inhibition at 1000 µM: 80.1 ± 1.2%

## CC(C)Nc1nnc(SCC(=O)c2ccc3c(c2)NC(=O)CS3)s1 [Compound 3c, 6-(2-((5-(Isopropylamino)-1,3,4-thiadiazol-2-yl)sulfanyl)acetyl)-2H-benzo[b][1,4]thiazin-3(4H)-one]
BChE; 10^−3 M
  BChE % Inhibition: 29.1 ± 0.8%
BChE; 10^−4 M
  BChE % Inhibition: 20.4 ± 0.7%
AChE
  inhibition at 100 µM: 40.1 ± 0.9%
  inhibition at 1000 µM: 70.6 ± 1%

## CCNc1nnc(SCC(=O)c2ccc3c(c2)NC(=O)CS3)s1 [Compound 3a, 6-(2-((5-(Ethylamino)-1,3,4-thiadiazol-2-yl)sulfanyl)acetyl)-2H-benzo[b][1,4]thiazin-3(4H)-one]
BChE; 10^−3 M
  BChE % Inhibition: 31.8 ± 0.8%
BChE; 10^−4 M
  BChE % Inhibition: 25.1 ± 0.8%
AChE
  inhibition at 100 µM: 48.8 ± 0.8%
  inhibition at 1000 µM: 78.2 ± 1.2%

## CCCNc1nnc(SCC(=O)c2ccc3c(c2)NC(=O)CS3)s1 [Compound 3b, 6-(2-((5-(Propylamino)-1,3,4-thiadiazol-2-yl)sulfanyl)acetyl)-2H-benzo[b][1,4]thiazin-3(4H)-one]
BChE; 10^−3 M
  BChE % Inhibition: 34.9 ± 0.8%
BChE; 10^−4 M
  BChE % Inhibition: 26.9 ± 0.6%
AChE
  inhibition at 100 µM: 45.6 ± 0.9%
  inhibition at 1000 µM: 75.4 ± 1.4%

## Cc1ccc(Nc2nnc(SCC(=O)c3ccc4c(c3)NC(=O)CS4)s2)cc1 [Compound 3h, 6-(2-((5-(p-Tolylamino)-1,3,4-thiadiazol-2-yl)sulfanyl)acetyl)-2H-benzo[b][1,4]thiazin-3(4H)-one]
BChE; 10^−3 M
  BChE % Inhibition: 35.6 ± 0.7%
BChE; 10^−4 M
  BChE % Inhibition: 23.5 ± 0.7%
AChE
  inhibition at 100 µM: 42.7 ± 0.8%
  inhibition at 1000 µM: 82.2 ± 1.8%

## O=C1CSc2ccc(C(=O)CSc3nnc(Nc4ccc(Cl)cc4)s3)cc2N1 [Compound 3j, 6-(2-((5-((4-chlorophenyl)amino)-1,3,4-thiadiazol-2-yl)sulfanyl)acetyl)-2H benzo[b][1,4]thiazin-3(4H)-one]
[1]
  Type of BBB Permeation: CNS+ High BBB permeation (High BBB permeation Pe (10^−6 cm s^−1) > 4.0)
  BBB permeability (in words): high BBB permeability
[2]; 0.01 µM
  % DPPH free radical scavenging (inhibition): 68.00% ± 1.50
[2]; 0.1 µM
  % DPPH free radical scavenging (inhibition): 73.00% ± 1.40
[2]; 1 µM
  % DPPH free radical scavenging (inhibition): 85.00% ± 2.00
[2]; 10 µM
  % DPPH free radical scavenging (inhibition): 92.00% ± 1.80
BChE; 10^−3 M
  BChE % Inhibition: 42.5 ± 0.9%
BChE; 10^−4 M
  BChE % Inhibition: 27.9 ± 0.7%
AChE
  inhibition at 100 µM: 92.3 ± 1.3%
  inhibition at 1000 µM: 96.5 ± 1.2%
[3]
  IC50: 160 ± 5.53 µM
